Experimental findings from patent US20230075856A1, “CYCLIC SULFAMIDE COMPOUNDS FOR TREATMENT OF HBV” (Assembly Biosciences, Inc., priority 2018, published 2023) are described below.

Molecules are shown by their SMILES. Some results are limits rather than exact numbers.

One experiment concerns HBV viral load production from HepAD38 cells. In words: Viral production from HepAD38 cells: viral load in supernatant by qPCR of the HBV core sequence. The format is cell-based. As to conditions: 5 days incubation, qPCR of supernatant HBV DNA vs DMSO control, read-out: viral load lowering EC50 (Activity). The protocol:
Assay Measuring Activity of Test Compounds on Viral Production from HepAD38 Cells
HepAD38 cells grown in a T-150 flask (Corning, cat #: 430825) with Growth Medium (DMEM/F12 […] (Hyclone, cat #: SH30023.02), 1× Pen/Strep (Invitrogen, cat #: 15140-122), 10% FBS (Tissue Culture Biologics, cat #: 101), […] G418 (Alfa Aesar, cat #: J62671), 1 μg/mL Tetracycline (Teknova, cat #: T3320)) were detached with 0.25% trypsin-EDTA (Invitrogen, cat #: 25200-056). Tetracycline-free treatment medium (15 mL DMEM/F12 (1:1) 1× Pen/step, with 2% FBS, Tet-system approved (Clontech, cat #: 631106) were then added to mix, transferred into a 50 ml conical tube (Falcon, cat #: 21008-918,) and spun at 1300 rpm for 5 min. Pelleted cells were then re-suspended/washed with 50 mL of 1×DPBS (Invitrogen, cat #: 14190-136) 2 times and 50 mL treatment medium twice. HepAD38 cells were then re-suspended with 10 mL of treatment medium, syringed and counted. Wells of 96-well clear bottom TC plate (Corning, cat #: 3904,) were seeded at 50,000 cells/well in 180 μL of treatment medium, and 20 μL of either 10% DMSO (Sigma, cat #: D4540) as controls or a 10× solution of test compounds in 10% DMSO in treatment media was added for a final compound concentration starting at 10 μM, and plates were incubated in 5% CO2 incubator at 37° C. for 5 days.
Subsequently viral load production was assayed by quantitative PCR (qPCR) of the HBV core sequence. PCR reaction mixture containing forward primers HBV-f 5′-CTGTGCCTTGGGTGGCTIT-3′ (IDT DNA), Reverse primers HBV-r 5′-[…]-3′ (IDT DNA), Fluorescent TaqMan™ Probes HBV-probe 5′-FAM/AGCTCCAAA/ZEN/[…]/3IABkFQ-3′ (IDT DNA), 10 μL/well of PerfeCTa® qPCR ToughMix® (Quanta Biosciences, Cat #: 95114-05K), and 6 μL/well of DEPC water (Alfa Aesar, cat #: J62087) was prepared. Four μL of supernatant was added to 16 μL of the reaction mixture in a qPCR plate (Applied Biosytems, Cat #: 4309849), sealed with a film (Applied Biosystems, Cat #: 4311971), centrifuged for a few seconds, and subsequently run on an Applied Biosystems VIIA7. The PCR mixture was incubated at 45° C. for 5 min, then 95° C. for 10 min, followed by 40 cycles of 10 seconds at 95° C. and 20 seconds at 60° C. Viral load was quantified against known HBV DNA standards by using ViiA™ 7 Software. Viral load in the supernatant from wells with treated cells were compared against viral load in supernatant from DMSO control wells (≥3 per plate). Cell viability assay was performed with CellTiter-Glo Luminescent Cell Viability Assay (Promega, cat #: G7573) with modification. Mixed appropriate amount of CellTiter-Glo (CTG) 1×DPBS in a 1:1 ratio, added 100 uL of the mixture to each well followed completely removal of all supernatant in each well without touching cell surface. Incubated the plate at room temperature for 10 min on an orbital shaker, and then read the plate with a plate reader (TECAN M1000 or Envision). EC50 or CC50 values were calculated through curve-fitting of the four-parameter nonlinear-logistic-regression model (GraphPad Prism or Dotmatics). CC50 values were all >10 μM.
(Real-time PCR tracks product formation cycle by cycle.)
For `CN1C(C(=O)Nc2ccc(F)c(Cl)c2)CC(C(=O)NC2CCN(c3ccnc(Br)c3)CC2)NS1(=O)=O` (single isomer, unassigned) [1036-ISOMER-B, N5-[1-(2-bromo-4-pyridyl)-4-piperidyl]-N3-(3-chloro-4-fluoro-phenyl)-2-methyl-1,1-dioxo-1,2,6-thiadiazinane-3,5-dicarboxamide], the EC50 – broadly, the concentration that produces a half-maximal response – lay in the range of 100 to 10000 nM.
Turning to `CN1C(C(=O)Nc2ccc(F)c(Cl)c2)CC(C(=O)NCc2cnc(-c3ccc(C#N)cc3F)s2)NS1(=O)=O` (single isomer, unassigned) [Compound 920-ISOMER-B, N3-(3-chloro-4-fluoro-phenyl)-N5-[[2-(4-cyano-2-fluoro-phenyl)thiazol-5-yl]methyl]-2-methyl-1,1-dioxo-1,2,6-thiadiazinane-3,5-dicarboxamide], the EC50 was under 50 nM.
On the same count and under the same terms, in the case of `CN1C(C(=O)Nc2ccc(F)c(Cl)c2)CC(C(=O)NC2CCN(c3ccccn3)CC2)NS1(=O)=O` (single isomer, unassigned) [Compound 769-ISOMER-B, N3-(3-chloro-4-fluoro-phenyl)-2-methyl-1,1-dioxo-N5-[1-(2-pyridyl)-4-piperidyl]-1,2,6-thiadiazinane-3,5-dicarboxamide] it was 100 to 10000 nM; in that of `CN1C(C(=O)Nc2ccc(F)c(Cl)c2)CC(C(=O)NCc2nn(-c3ccccc3)c3ccccc23)NS1(=O)=O` (single isomer, unassigned) [1072-ISOMER-B, N3-(3-chloro-4-fluoro-phenyl)-2-methyl-1,1-dioxo-N5-[(1-phenylindazol-3-yl)methyl]-1,2,6-thiadiazinane-3,5-dicarboxamide], 100 to 10000 nM.
Still for that read-out and setting: in the case of `CCN1C(C(=O)Nc2ccc(F)c(Cl)c2)CC(C(=O)NCc2cnc(C)s2)NS1(=O)=O` (single isomer, unassigned) [Compound 888-ISOMER-B, N3-(3-chloro-4-fluoro-phenyl)-2-ethyl-N5-[(2-methylthiazol-5-yl)methyl]-1,1-dioxo-1,2,6-thiadiazinane-3,5-dicarboxamide] it was under 50 nM.
On to `Cc1c(CNC(=O)C2CC(C(=O)Nc3ccc(F)c(Cl)c3)N(C)S(=O)(=O)N2)cnn1C` (single isomer, unassigned) [Compound 740-ISOMER-B, N3-(3-chloro-4-fluoro-phenyl)-N5-[(1,5-dimethylpyrazol-4-yl)methyl]-2-methyl-1,1-dioxo-1,2,6-thiadiazinane-3,5-dicarboxamide], for which the EC50 is 100 to 10000 nM.
The same measure, in the same setting: in the case of `CN(C)CCCCc1cnn(-c2ncc(CNC(=O)C3CC(C(=O)Nc4ccc(F)c(Cl)c4)N(C)S(=O)(=O)N3)s2)c1` (single isomer, unassigned) [1197-ISOMER-B, N3-(3-chloro-4-fluoro-phenyl)-N5-[[2-[4-[4-(dimethylamino)butyl]pyrazol-1-yl]thiazol-5-yl]methyl]-2-methyl-1,1-dioxo-1,2,6-thiadiazinane-3,5-dicarboxamide] it was 50 to 100 nM.

The experiment is the same for the next values; noted with them: Hepatitis B virus, HePAD38, 120 h, 5 days incubation, qPCR of supernatant HBV DNA vs DMSO control, read-out: viral load lowering EC50 (Activity).
In the case of `CN1C(C(=O)Nc2ccc(F)c(Cl)c2)CC(C(=O)NCc2sc(Cl)nc2C(F)(F)F)NS1(=O)=O` (centres unmarked) [Compound 1062], the EC50 lay within 50 to 100 nM.
The same measure, in the same setting: in the case of `CN1C(C(=O)Nc2ccc(F)c(Cl)c2)CC(C(=O)NCc2cnccn2)NS1(=O)=O` (centres unmarked) [Compound 704] it was 100 to 10000 nM.
The same measure, in the same setting: in the case of `Cc1ccccc1CNC(=O)C1CC(C(=O)Nc2ccc(F)c(Cl)c2)N(C)S(=O)(=O)N1` (centres unmarked) [Compound 817] it was under 50 nM.
The same measure, in the same setting: in the case of `CN1C(C(=O)Nc2ccc(F)c(Cl)c2)CC(C(=O)NCc2nn(-c3ccccc3)c3ccccc23)NS1(=O)=O` (single isomer, unassigned) [1072-ISOMER-A, N3-(3-chloro-4-fluoro-phenyl)-2-methyl-1,1-dioxo-N5-[(1-phenylindazol-3-yl)methyl]-1,2,6-thiadiazinane-3,5-dicarboxamide] it was under 50 nM.
As for `CCn1nccc1CNC(=O)C1CC(C(=O)Nc2ccc(F)c(Cl)c2)N(C)S(=O)(=O)N1` (centres unmarked) [Compound 744], the EC50 was in the range of 50 to 100 nM.
Same read-out and setting: in the case of `Cc1c(CNC(=O)C2CC(C(=O)Nc3ccc(F)c(Cl)c3)N(C)S(=O)(=O)N2)noc1-c1ccccc1` (single isomer, unassigned) [1150-ISOMER-A, N3-(3-chloro-4-fluoro-phenyl)-2-methyl-N5-[(4-methyl-5-phenyl-isoxazol-3-yl)methyl]-1,1-dioxo-1,2,6-thiadiazinane-3,5-dicarboxamide] it was under 50 nM.
Same read-out and setting: in the case of `CN1C(C(=O)Nc2ccc(F)c(Cl)c2)CC(C(=O)NCc2ccccc2-c2cn(C)cn2)NS1(=O)=O` (single isomer, unassigned) [Compound 823-ISOMER-B, N3-(3-chloro-4-fluoro-phenyl)-2-methyl-N5-[[2-(1-methylimidazol-4-yl)phenyl]methyl]-1,1-dioxo-1,2,6-thiadiazinane-3,5-dicarboxamide] it was 100 to 10000 nM.
For the compound `Cc1nc(-c2ccccc2Cl)sc1[C@H](NC(=O)C1CC(C(=O)Nc2ccc(F)c(Cl)c2)N(C)S(=O)(=O)N1)c1ccccc1` (single isomer, unassigned) [1100-ISOMER-C], the EC50 lay within 100 to 10000 nM.
Still for that read-out and setting: in the case of `CN1C(C(=O)Nc2ccc(F)c(Cl)c2)CC(C(=O)N[C@@H](c2ccccc2)c2cnc(-c3ccccc3Cl)s2)NS1(=O)=O` (single isomer, unassigned) [1068-ISOMER-B] it was 50 to 100 nM.
On the same count and under the same terms, in the case of `CN1C(C(=O)Nc2ccc(F)c(Cl)c2)CC(C(=O)NCc2cnc(-c3ccc(C#CCCO)cc3)s2)NS1(=O)=O` (centres unmarked) [Compound 926] it was under 50 nM; in that of `CN1C(C(=O)Nc2ccc(F)c(Cl)c2)CC(C(=O)NC2CCN(c3cc(Cl)ccn3)CC2)NS1(=O)=O` (centres unmarked) [Compound 974], under 50 nM; in that of `COc1ccccc1-c1ncc(CNC(=O)C2CC(C(=O)Nc3ccc(F)c(Cl)c3)N(C)S(=O)(=O)N2)s1` (centres unmarked) [Compound 987], under 50 nM.
Regarding `CN1C(C(=O)Nc2ccc(F)c(Cl)c2)CC(C(=O)NC2CCN(c3ccnc(C4CC4)c3)CC2)NS1(=O)=O` (centres unmarked) [Compound 1051], the EC50 was under 50 nM.
The same measure, in the same setting: in the case of `CN1C(C(=O)Nc2ccc(F)c(Cl)c2)CC(C(=O)Nc2cn(C)cn2)NS1(=O)=O` (centres unmarked) [Compound 494] it was 50 to 100 nM.
Consider `CN1C(C(=O)Nc2ccc(F)c(Cl)c2)CC(C(=O)NCc2ccccc2F)NS1(=O)=O` (centres unmarked) [Compound 819], for which the EC50 was under 50 nM.
On to `CN1C(C(=O)Nc2ccc(F)c(Cl)c2)CC(C(=O)NC2CCN(c3ccccn3)CC2)NS1(=O)=O` (centres unmarked) [Compound 769], for which the concentration giving a half-maximal response (EC50) was under 50 nM.
Same read-out and setting: in the case of `CN1C(C(=O)Nc2ccc(F)c(Cl)c2)CC(C(=O)NCc2cc(-c3ccc(F)cc3)n(C)n2)NS1(=O)=O` (centres unmarked) [Compound 1151] it was under 50 nM.
Still for that read-out and setting: in the case of `Cc1nc(-c2ccccc2Cl)sc1[C@@H](NC(=O)C1CC(C(=O)Nc2ccc(F)c(Cl)c2)N(C)S(=O)(=O)N1)c1ccccc1` (single isomer, unassigned) [1100-ISOMER-D] it was 100 to 10000 nM.
The same measure, in the same setting: in the case of `Cc1ncc(CNC(=O)C2CC(C(=O)Nc3ccc(F)c(Cl)c3)N(C)S(=O)(=O)N2)s1` (centres unmarked) [Compound 495] it was under 50 nM; in that of `CN1C(C(=O)Nc2ccc(F)c(Cl)c2)CC(C(=O)NC2CCN(C(=O)OCCCN3CCCCC3)CC2)NS1(=O)=O` (centres unmarked) [Compound 964], 100 to 10000 nM; in that of `CN1C(C(=O)Nc2ccc(F)c(Cl)c2)CC(C(=O)NC2CCN(c3cc(Cl)ccn3)CC2)NS1(=O)=O` (single isomer, unassigned) [Compound 974-ISOMER-A, N3-(3-chloro-4-fluoro-phenyl)-N5-[1-(4-chloro-2-pyridyl)-4-piperidyl]-2-methyl-1,1-dioxo-1,2,6-thiadiazinane-3,5-dicarboxamide], under 50 nM.
Turning to `CN1C(C(=O)Nc2ccc(F)c(Cl)c2)CC(C(=O)N[C@H](c2ccccc2)c2cnc(Cl)s2)NS1(=O)=O` (single isomer, unassigned) [1066-ISOMER-C], the EC50 is under 50 nM.
